Assay results published in ChEMBL document CHEMBL1144350, “Synthesis and evaluation of imidazolylmethylenetetrahydronaphthalenes and imidazolylmethyleneindanes: potent inhibitors of aldosterone synthase” (J Med Chem, 2005).

Key:
[1] = molecular target: T1, Steroid 17-alpha-hydroxylase/17,20 lyase (Homo sapiens, UniProt P05093); test: In vitro inhibition against human […] cytochrome P450 17 expressed in Escherichia coli with 2.5 uM progesterone
T1 sequence (P05093 whole entry): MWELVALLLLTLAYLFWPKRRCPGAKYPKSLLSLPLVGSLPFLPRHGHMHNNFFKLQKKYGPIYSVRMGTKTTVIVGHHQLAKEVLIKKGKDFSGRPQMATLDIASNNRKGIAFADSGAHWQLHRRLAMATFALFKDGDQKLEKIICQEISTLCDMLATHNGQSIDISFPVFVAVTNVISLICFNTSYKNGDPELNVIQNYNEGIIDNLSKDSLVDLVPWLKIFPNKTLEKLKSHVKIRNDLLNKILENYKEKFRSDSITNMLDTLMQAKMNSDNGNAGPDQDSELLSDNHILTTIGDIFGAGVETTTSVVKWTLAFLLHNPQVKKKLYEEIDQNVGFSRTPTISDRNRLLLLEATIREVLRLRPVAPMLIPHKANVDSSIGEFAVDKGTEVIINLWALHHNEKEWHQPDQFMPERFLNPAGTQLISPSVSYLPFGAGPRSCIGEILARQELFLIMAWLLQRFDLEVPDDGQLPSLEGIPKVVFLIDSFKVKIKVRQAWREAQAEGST

[2] = molecular target: T2, Cytochrome P450 11B1, mitochondrial (Bos taurus, UniProt P15150); test: In vitro inhibition against bovine cytochrome P450 11B with 200 uM corticosterone; conditions: cyp11b
T2 sequence (P15150 whole entry): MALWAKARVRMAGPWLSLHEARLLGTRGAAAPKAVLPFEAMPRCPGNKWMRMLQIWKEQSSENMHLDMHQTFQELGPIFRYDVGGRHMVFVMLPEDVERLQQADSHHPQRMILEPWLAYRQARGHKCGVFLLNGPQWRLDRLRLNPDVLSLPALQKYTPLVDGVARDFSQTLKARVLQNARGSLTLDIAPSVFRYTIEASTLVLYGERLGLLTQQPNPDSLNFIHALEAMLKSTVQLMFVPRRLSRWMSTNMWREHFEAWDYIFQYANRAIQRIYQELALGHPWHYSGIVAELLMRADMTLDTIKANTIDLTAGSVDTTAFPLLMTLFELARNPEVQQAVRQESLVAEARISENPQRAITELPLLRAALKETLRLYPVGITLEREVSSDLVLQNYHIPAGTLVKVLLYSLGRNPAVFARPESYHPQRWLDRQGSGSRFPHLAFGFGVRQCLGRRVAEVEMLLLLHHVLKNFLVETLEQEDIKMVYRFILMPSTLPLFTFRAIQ

[3] = molecular target: T3, Cytochrome P450 11B2, mitochondrial (Homo sapiens, UniProt P19099); test: In vitro inhibition of human cytochrome P450 11B2 expressed in Schizosaccharomyces pombe with 500 nM deoxy-corticosterone
T3 sequence (P19099 whole entry): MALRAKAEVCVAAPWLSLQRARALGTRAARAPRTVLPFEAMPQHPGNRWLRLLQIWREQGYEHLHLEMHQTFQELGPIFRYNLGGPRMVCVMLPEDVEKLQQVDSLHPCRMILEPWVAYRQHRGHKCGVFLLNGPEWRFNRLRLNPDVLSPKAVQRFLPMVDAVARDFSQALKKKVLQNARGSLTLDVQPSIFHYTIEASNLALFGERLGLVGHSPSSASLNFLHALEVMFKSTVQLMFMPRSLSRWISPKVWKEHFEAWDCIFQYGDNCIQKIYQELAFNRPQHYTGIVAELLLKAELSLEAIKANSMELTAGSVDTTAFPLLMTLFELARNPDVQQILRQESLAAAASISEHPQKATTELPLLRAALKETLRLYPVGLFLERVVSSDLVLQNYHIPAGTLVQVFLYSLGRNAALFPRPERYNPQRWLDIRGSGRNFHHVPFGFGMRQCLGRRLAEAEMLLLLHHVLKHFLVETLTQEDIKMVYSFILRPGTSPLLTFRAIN

Aromatase = molecular target: T4, Aromatase (Homo sapiens, UniProt P11511)
T4 sequence (P11511 whole entry): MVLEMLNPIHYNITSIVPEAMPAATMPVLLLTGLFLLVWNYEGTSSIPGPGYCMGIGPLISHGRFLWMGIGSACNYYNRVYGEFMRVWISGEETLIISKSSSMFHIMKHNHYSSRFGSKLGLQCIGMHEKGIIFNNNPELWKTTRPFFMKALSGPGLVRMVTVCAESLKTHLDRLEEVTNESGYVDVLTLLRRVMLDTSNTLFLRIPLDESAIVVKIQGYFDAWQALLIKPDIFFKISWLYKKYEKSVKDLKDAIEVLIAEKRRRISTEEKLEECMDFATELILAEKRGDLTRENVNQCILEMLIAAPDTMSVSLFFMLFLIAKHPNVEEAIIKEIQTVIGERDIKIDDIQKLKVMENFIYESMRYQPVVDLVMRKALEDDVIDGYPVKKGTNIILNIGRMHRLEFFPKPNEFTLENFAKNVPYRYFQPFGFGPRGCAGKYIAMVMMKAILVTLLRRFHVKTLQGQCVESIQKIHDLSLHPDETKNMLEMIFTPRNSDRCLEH
Description: In vitro inhibitory concentration against human placental cytochrome P450 19 with 2.5 uM testosterone

[4] = molecular target: T3, Cytochrome P450 11B2, mitochondrial; test: In vitro inhibition of [14C]deoxycorticosterone binding to human cytochrome P450 11B2 expressed in hamster V79 MZh cells; type: cell-based
[5] = molecular target: T5, Cytochrome P450 11B1, mitochondrial (Homo sapiens, UniProt P15538); test: In vitro inhibition of [14C]deoxycorticosterone binding to human cytochrome P450 11B1 expressed in hamster V79 MZh cells; type: cell-based
T5 sequence (P15538 whole entry): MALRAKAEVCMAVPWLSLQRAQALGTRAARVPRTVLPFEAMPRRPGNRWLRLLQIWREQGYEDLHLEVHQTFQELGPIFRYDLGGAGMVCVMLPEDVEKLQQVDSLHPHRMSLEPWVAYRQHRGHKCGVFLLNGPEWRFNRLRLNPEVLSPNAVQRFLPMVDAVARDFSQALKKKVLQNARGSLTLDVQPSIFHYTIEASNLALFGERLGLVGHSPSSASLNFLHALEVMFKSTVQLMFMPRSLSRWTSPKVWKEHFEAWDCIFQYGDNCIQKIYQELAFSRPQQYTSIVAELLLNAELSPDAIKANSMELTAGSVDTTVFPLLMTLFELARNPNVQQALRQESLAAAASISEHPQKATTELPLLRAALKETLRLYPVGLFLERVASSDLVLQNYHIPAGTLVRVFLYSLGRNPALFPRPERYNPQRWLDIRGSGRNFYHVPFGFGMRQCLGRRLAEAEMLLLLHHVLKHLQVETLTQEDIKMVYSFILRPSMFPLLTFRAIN

Row | IC50 [5] | Structure (SMILES) | Inhibition [1] | Inhibition [2] | Inhibition [3] | IC50 (Aromatase) | IC50 [4]
1 | – | N#Cc1ccc2c(c1)/C(=C/c1cnc[nH]1)CCC2 | 2% | 62% | 8% | 970 nM | –
2 | 12.3 nM | N#Cc1ccc2c(c1)CC/C2=C/c1ncc[nH]1 | 4% | 100% | 65% | 15 nM | 35.7 nM
3 | – | Brc1ccc2c(c1)CC/C2=C/c1c[nH]cn1 | 15% | 88% | 76% | – | 10.3 nM
4 | – | Clc1ccc2c(c1)/C(=C/c1c[nH]cn1)CCC2 | 24% | 66% | 48% | 120 nM | 47.3 nM
5 | – | N#Cc1ccc2c(c1)/C(=C\c1c[nH]cn1)CCC2 | 3% | 97% | 23% | 810 nM | –
6 | – | Clc1ccc2c(c1)CC/C2=C/c1c[nH]cn1 | 26% | 87% | 80% | 39 nM | –
7 | – | Fc1ccc2c(c1)CC/C2=C/c1c[nH]cn1 | 11% | 64% | 58% | – | –
8 | – | C(=C1\CCCc2ccccc21)/c1c[nH]cn1 | 13% | 95% | 82% | 190 nM | –
